In patent US8324188B2, “Combinations of ET-18-O-CH3and anti-cancer agents for the treatment of cancer” (priority 2006, dated 2012):
Where “and” joins values, the source holds several entries; their conditions need not be identical. Identical values can stand only once.

How the values were obtained:
NCI-H460 (FAS positive) = test: WST-1 proliferation assay, NCI-H460; type: cell-based, human; details: single agent, per experiment line
Experimental: (§1) 2000 cells were plated in each well of 96-well flat bottom plates, and incubated overnight at 37 °C in 5% CO2. The growth of plated cells was measured by adding […] of WST-1 reagent (Roche Applied Sciences, Germany) to 3 control wells and measuring the absorbance at 650 nm and at 450 nm, respectively, with a SpectraMax250 plate reader. […] After this incubation, VVST-1 reagent was added to the wells and OD650-OD450 values were calculated as before. six wells were assayed for each conditions and standard deviation was determined: all experiments were performed at least three times independently. […] DDP and GMZ were both purchased from Sigma-aldrich Corp., St. Louis, Mo., USA. The following cell lines were used: A549 (FAS negative), NCI-H460 (FAS positive), and HCC827 (FAS positive), all obtained from the ATTC, Rockville, Md., USA.

HCC827 (FAS positive) = test: WST-1 proliferation assay, HCC827; type: cell-based, human; details: single agent, per experiment line
Experimental: as §1

LN-229 = test: WST-1 proliferation assay, LN-229; type: cell-based; details: Homo sapiens
Experimental: 2000 cells were plated in each well of 96-well flat bottom plates, and incubated overnight at 37 °C in 5% CO2. The growth of plated cells was measured by adding […] of WST-1 reagent (Roche Applied Sciences, Germany) to 3 control wells and measuring the absorbance at 650 nm and at 450 nm, respectively, with a SpectraMax250 plate reader. If the OD650-OD450 values were above 0.5, the remainder of the plate was used for incubation with AP-121, other pharmacological agents or solvent control for 96 hours.
After this incubation, VVST-1 reagent was added to the wells and OD650-OD450 values were calculated as before. six wells were assayed for each conditions and standard deviation was determined: all experiments were performed at least three times independently. After elucidation of individual IC50 values for each compound, the simultaneous combination treatment of AP-121 and the chemotherapeutic agent at their IC50 ratio was performed; combination index (CI) was determined by Calcusyn software package (Biosoft, Ferguson, Mo.). Data were evaluated by calculating the means of the combination index (CI), where a CI of <0.3 indicates a strong synergistic effect, 0.3<CI<0.7 a synergistic effect, 0.7<CI<0.9 moderate synergy, 0.9<CI<1 additive effect and CI>1 antagonistic effect, respectively.
For the AP-121 cell proliferation drug combination measurements, the ED50 was determined for each drug. Six different concentrations of each drug were used in combinations index measurements and compared to +/− cells, and compared to controls without compound. Each combination was repeated 6 times at 2 different time points (24 and 96 hours), each of the above experiments was repeated 3 times to obtain valid results.

T98G = test: WST-1 proliferation assay, T98G; type: cell-based; details: Homo sapiens
Experimental: AP-121 was prepared as 5 mM stock solution in distilled sterile water, Temozolomide (TMZ) (Haorui Pharma-Chem, Inc., Edison, N.J.) was prepared as 100 mM in sterile filtrated DMSO; Adriamycin (ADR) (Sigma) was prepared as 1 mM in distilled sterile water; Camptothecin (CTP) (Sigma) was prepared as 10 mM solution in 0.1 N NaOH; Tarceva (Proteinkinase, Germany) was prepared as 5 mM solution in sterile DMSO. All compound stocks were kept at −20° C. 2000 cells were plated in each well of 96-well flat bottom plates, and incubated overnight at 37 °C in 5% CO2. The growth of plated cells was measured by adding […] of WST-1 reagent (Roche Applied Sciences, Germany) to 3 control wells and measuring the absorbance at 650 nm and at 450 nm, respectively, with a SpectraMax250 plate reader. […] After this incubation, VVST-1 reagent was added to the wells and OD650-OD450 values were calculated as before. six wells were assayed for each conditions and standard deviation was determined: all experiments were performed at least three times independently. […] Six different concentrations of each drug were used in combinations index measurements and compared to +/− cells, and compared to controls without compound.

[1] = tested on: LNCaP cells grown orthotopically in the prostates of nude mice; test: LNCaP cells grown orthotopically in the prostates of nude mice (PSA, tumor volume); type: in vivo; details: 0-30 mg/kg intraperitoneal injections and concomitant irradiation; dose-dependent effect
Experimental: FIG. 2. Depicts the in vivo effects of 1-O-octadecyl-2-O-methyl-glycero-3-phosphocholine (30 mg/kg body weight/day administered intraperitoneally for 15 days; FIG. 2A), (ionizing) radiation (absorbed dose of 5 Gray units administered on day 7); FIG. 2C), and a combination thereof (FIG. 2B) on LNCaP cells grown orthotopically in the prostates of nude mice (seven mice/group). Tumor growth was assessed via determining the serum level of the prostate-specific antigen (PSA) using a commercially available test kit as well as the tumor volume by means of magnetic resonance imaging. Graphed lines show tumor size in individual mice.
It is known that prostate cancer cell lines express FAS receptor, that some of them are not sensitive to FAS (O. W. Rokhlin et al., Cancer Res. 1997, 57: 1758-68). […]
1-O-octadecyl-2-O-methyl-glycero-3-phosphocholine was administered intraperitoneally in a dose of 30 mg/kg body weight/day administered intraperitoneally for 15 days (FIG. 2A; studies using different routes of administration such as orally or by gavage are currently under way). […] Tumor growth was assessed via determining the serum level of the prostate-specific antigen (PSA) using a commercially available test kit as well as the tumor volume by means of magnetic resonance imaging.

Question: What does the source list for `CCCCCCCCCCCCCCCCCCOCC(COP(=O)([O-])OCC[N+](C)(C)C)OC` (racemic) [AP-121, 1-O-octadecyl-2-O-methyl-glycero-3-phosphocholine]?
Answer: IC50 (NCI-H460 (FAS positive); Homo sapiens, NCI-H460, NCI-H460): 1500 nM; IC50 (NCI-H460 (FAS positive); NCI-H460): 1400 nM and 2000 nM; IC50 (HCC827 (FAS positive)): 2400 nM and 850 nM and 1600 nM; IC50 (LN-229): 4300 nM; IC50 (T98G): 4100 nM; PSA (prostate specific antigen) levels [1]: reduced after few days of treatment; tumor size [1]: shrinkage of the tumor size after one week of treatment
